# Measurements taken from patent publication US20260115185A1, “QUINOLINE DERIVATIVES WHICH ACT AS KAPPA-OPIOID RECEPTOR ANTAGONISTS” (The Scripps Research Institute, priority 2023, published 2026).
# How the values were obtained:
# [1] = biological target: T1, kappa opioid receptor (KOR) (Homo sapiens, UniProt P41145); assay: OPRKappa 1 Tango B-Arrestin Assay, antagonist mode (Tango OPRK1-bla U2OS cells, U50488 EC80 challenge); format: cell-based; conditions: for Selectivity (MOR/KOR): Kappa selectivity, MOR IC50 / KOR IC50; for IC50: antagonist mode, Tango OPRK1-bla U2OS cells, 6 nM U50488 challenge
# T1 construct: host or cells: U2OS (Tango OPRK1-bla U2OS)
# T1 sequence (P41145 whole entry): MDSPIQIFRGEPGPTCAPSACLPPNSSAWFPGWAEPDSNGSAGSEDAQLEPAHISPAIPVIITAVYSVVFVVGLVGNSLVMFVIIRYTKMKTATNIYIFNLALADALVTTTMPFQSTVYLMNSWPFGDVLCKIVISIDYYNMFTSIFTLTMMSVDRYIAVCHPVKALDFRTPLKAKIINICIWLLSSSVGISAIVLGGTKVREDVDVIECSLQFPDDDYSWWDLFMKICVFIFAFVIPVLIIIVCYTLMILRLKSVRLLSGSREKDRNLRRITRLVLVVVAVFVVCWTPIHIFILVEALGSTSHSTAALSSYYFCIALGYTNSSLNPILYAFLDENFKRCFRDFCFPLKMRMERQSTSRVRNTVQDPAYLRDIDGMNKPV
# How it was run: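 Tango OPRK1-bla U2OS cells, β-arrestin recruitment read as β-lactamase FRET (CCF4-AM, 460/590 nm emission). Compounds, 10-point 1:3 series from nominal 10 µM in quadruplicate, preincubated 30 min at 37 °C, then challenged with U50488 at 6 nM final (EC80) for 4 h; percent inhibition from median ratio.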
# [2] = biological target: T2, mu opioid receptor (MOR) (Homo sapiens, UniProt P35372); assay: OPRMu1 Discover X β-arrestin Assay, antagonist mode (U2OS cells, DAMGO EC80 challenge); format: cell-based
# T2 construct: host or cells: U2OS (Discover X OPRMu1-U2OS, PathHunter)
# T2 sequence (P35372 whole entry): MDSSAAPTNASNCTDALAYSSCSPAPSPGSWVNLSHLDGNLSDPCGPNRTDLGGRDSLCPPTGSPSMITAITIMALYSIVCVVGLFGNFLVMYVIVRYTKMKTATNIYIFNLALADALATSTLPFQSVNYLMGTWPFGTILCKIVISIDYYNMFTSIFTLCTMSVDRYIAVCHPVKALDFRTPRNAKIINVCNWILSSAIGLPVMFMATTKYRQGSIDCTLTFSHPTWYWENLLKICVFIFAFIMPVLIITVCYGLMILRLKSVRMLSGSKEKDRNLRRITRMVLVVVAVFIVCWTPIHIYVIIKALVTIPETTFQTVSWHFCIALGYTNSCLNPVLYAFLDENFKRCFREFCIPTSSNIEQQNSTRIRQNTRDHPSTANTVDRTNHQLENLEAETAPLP
# How it was run: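 PathHunter U2OS cells with β-gal fragment-complementation readout for β-arrestin recruitment to OPRMu1. Cells were preincubated with compound (10-point, 1:3 series from nominal 10 micromolar) for 30 min at 37 °C, then challenged with 303 nM DAMGO (EC80) for 3 h. Luminescence gave percent inhibition.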
smiles,measurement,setting,value
CCc1cc(F)c2nc(N3CCN(/C(=N\C#N)NC4CCOCC4)C[C@H]3C)c(-c3nc(C)no3)c(C)c2c1 [Compound 56],Selectivity (MOR/KOR),[1],++ (between 10- and 100-fold selectivity)
same,IC50,[1],10 to 100 nM
same,IC50,[2],100 to 1000 nM
"CCc1cc(F)c2nc(N3CCN(C(C)C4CCOCC4)C[C@H]3C)c(-c3nc(C)no3)c(C)c2c1 (stereo partly drawn) [Compound 199, 5-(6-ethyl-8-fluoro-4-methyl-2-((2R)-2-methyl-4-(1-(tetrahydro-2H-pyran-4-yl)ethyl)piperazin-1-yl)quinolin-3-yl)-3-methyl-1,2,4-oxadiazole]",Selectivity (MOR/KOR),[1],++++ (more than 1000-fold selectivity over MOR)
same,IC50,[1],10 to 100 nM
same,IC50,[2],> 1000 nM
CCc1cc(F)c2nc(N3CCN(C[C@@H]4CCCO4)C[C@H]3CC)c(-c3nc(C)no3)c(C)c2c1 [Compound 35],Selectivity (MOR/KOR),[1],++ (between 10- and 100-fold selectivity)
same,IC50,[1],10 to 100 nM
same,IC50,[2],> 1000 nM
CCc1cc(F)c2nc(N3CCN(C(=O)[C@H](CO)N(C)C)C[C@H]3C)c(-c3ccn(C)n3)c(C)c2c1 [Compound 178],Selectivity (MOR/KOR),[1],+++ (between 100- to 1000-fold selective)
same,IC50,[1],10 to 100 nM
same,IC50,[2],> 1000 nM
CCc1cc(F)c2nc(N3CCN(C(=O)CN(CC)CC)C[C@H]3C)c(-c3ccn(C)n3)c(C)c2c1 [Compound 176],Selectivity (MOR/KOR),[1],+++ (between 100- to 1000-fold selective)
same,IC50,[1],1 to 10 nM
same,IC50,[2],> 1000 nM
"CCc1cc(F)c2nc(N3CCC(N[C@@H]4CCOC[C@H]4F)CC3)c(-c3cc(C)n(C)n3)c(C)c2c1 [Compound 4, 1-(3-(1,5-dimethyl-1H-pyrazol-3-yl)-6-ethyl-8-fluoro-4-methylquinolin-2-yl)-N-((3S,4R)-3-fluorotetrahydro-2H-pyran-4-yl)piperidin-4-amine]",Selectivity (MOR/KOR),[1],++ (between 10- and 100-fold selectivity)
same,IC50,[1],10 to 100 nM
same,IC50,[2],100 to 1000 nM
"Cc1cc(Cl)c2nc(N3CCN(CC4CCOCC4)C[C@H]3C)c(-c3nc(C)no3)c(C)c2c1 [Compound 51, (R)-5-(8-chloro-4,6-dimethyl-2-(2-methyl-4-((tetrahydro-2H-pyran-4-yl)methyl)piperazin-1-yl)quinolin-3-yl)-3-methyl-1,2,4-oxadiazole]",Selectivity (MOR/KOR),[1],+++ (between 100- to 1000-fold selective)
same,IC50,[1],1 to 10 nM
same,IC50,[2],100 to 1000 nM
CCc1cc(-c2ccnn2C)c2nc(N3CCC(N[C@@H]4CCOC4)CC3)c(-c3ccn(C)n3)c(C)c2c1 [Compound 87],Selectivity (MOR/KOR),[1],+++ (between 100- to 1000-fold selective)
same,IC50,[1],< 1 nM
same,IC50,[2],100 to 1000 nM
CCc1cc(F)c2nc(N3CCN([C@@H]4CCOC4)C[C@H]3C)c(-c3nc(C)no3)c(C)c2c1 [Compound 31],Selectivity (MOR/KOR),[1],++ (between 10- and 100-fold selectivity)
same,IC50,[1],≥ 100 nM
same,IC50,[2],> 1000 nM
CCc1cc(F)c2nc(N3CCC(N[C@H]4CCCC(F)(F)C4)CC3)c(-c3cc(C)n(C)n3)c(C)c2c1 [Compound 67],Selectivity (MOR/KOR),[1],++ (between 10- and 100-fold selectivity)
same,IC50,[1],1 to 10 nM
same,IC50,[2],10 to 100 nM
CCc1cc(F)c2nc(N3CCN(/C(=N/C#N)NC)C[C@H]3C)c(-c3nc(C)no3)c(C)c2c1 [Compound 55],Selectivity (MOR/KOR),[1],++ (between 10- and 100-fold selectivity)
same,IC50,[1],10 to 100 nM
same,IC50,[2],> 1000 nM
"CCc1cc(F)c2nc(N3CCN(CC4CCOCC4)C[C@H]3CC)c(-c3nc(C)no3)c(C)c2c1 [Compound 34, (R)-5-(6-ethyl-2-(2-ethyl-4-((tetrahydro-2H-pyran-4-yl)methyl)piperazin-1-yl)-8-fluoro-4-methylquinolin-3-yl)-3-methyl-1,2,4-oxadiazole]",Selectivity (MOR/KOR),[1],+ (less than 10-fold selectivity)
same,IC50,[1],10 to 100 nM
same,IC50,[2],100 to 1000 nM
CCc1cc(F)c2nc(N3CCN(C(=O)[C@@H](C)N(CC)CC)C[C@H]3C)c(-c3nc(C)no3)c(C)c2c1 [Compound 155],Selectivity (MOR/KOR),[1],+++ (between 100- to 1000-fold selective)
same,IC50,[1],1 to 10 nM
same,IC50,[2],> 1000 nM
"CCc1cc(F)c2nc(N3CC[C@H](N[C@@H]4CCOC4)[C@H](F)C3)c(-c3ccn(C)n3)c(C)c2c1 [Compound 194, (3R,4S)-1-(6-ethyl-8-fluoro-4-methyl-3-(1-methyl-1H-pyrazol-3-yl)quinolin-2-yl)-3-fluoro-N—((R)-tetrahydrofuran-3-yl)piperidin-4-amine]",Selectivity (MOR/KOR),[1],+++ (between 100- to 1000-fold selective)
same,IC50,[1],1 to 10 nM
same,IC50,[2],> 1000 nM
CCc1cc(F)c2nc(N3CCN(C[C@@H]4CCCO4)C[C@H]3C)c(-c3nc(C)no3)c(C)c2c1 [Compound 29],Selectivity (MOR/KOR),[1],+++ (between 100- to 1000-fold selective)
same,IC50,[1],1 to 10 nM
same,IC50,[2],> 1000 nM
CCc1cc(C#N)c2nc(N3CCC(NCC4(F)CCOCC4)CC3)c(-c3ccn(C)n3)c(C)c2c1 [Compound 80],Selectivity (MOR/KOR),[1],++ (between 10- and 100-fold selectivity)
same,IC50,[1],1 to 10 nM
same,IC50,[2],100 to 1000 nM
"CCc1cc(F)c2nc(N3CCN(C(=O)CN4CCCC4)C[C@H]3C)c(-c3nc(C)no3)c(C)c2c1 [Compound 47, (R)-1-(4-(6-ethyl-8-fluoro-4-methyl-3-(3-methyl-1,2,4-oxadiazol-5-yl)quinolin-2-yl)-3-methylpiperazin-1-yl)-2-(pyrrolidin-1-yl)ethan-1-one]",Selectivity (MOR/KOR),[1],+++ (between 100- to 1000-fold selective)
same,IC50,[1],1 to 10 nM
same,IC50,[2],100 to 1000 nM
CCc1cc(F)c2nc(N3CC[C@@H](NC[C@@H]4CCOC4)[C@@H](F)C3)c(-c3ccn(C)n3)c(C)c2c1 [Compound 204],Selectivity (MOR/KOR),[1],++++ (more than 1000-fold selectivity over MOR)
same,IC50,[1],< 1 nM
same,IC50,[2],100 to 1000 nM
CCc1cc(F)c2nc(N3CCN(C(=O)[C@@H]4CCCN4C)C[C@H]3C)c(-c3cc(C)no3)c(C)c2c1 [Compound 165],Selectivity (MOR/KOR),[1],+++ (between 100- to 1000-fold selective)
same,IC50,[1],10 to 100 nM
same,IC50,[2],> 1000 nM
"CCc1cc(-c2ccnn2C)c2nc(N3CCC(N[C@@H]4CCOC[C@@H]4F)CC3)c(-c3ccn(C)n3)c(C)c2c1 [Compound 20, 1-(6-ethyl-4-methyl-3-(1-methyl-1H-pyrazol-3-yl)-8-(1-methyl-1H-pyrazol-5-yl)quinolin-2-yl)-N-((3R,4R)-3-fluorotetrahydro-2H-pyran-4-yl)piperidin-4-amine]",Selectivity (MOR/KOR),[1],++ (between 10- and 100-fold selectivity)
same,IC50,[1],< 1 nM
same,IC50,[2],10 to 100 nM
CCc1cc(F)c2nc(N3CCN(C(=O)[C@@H]4CCCCN4C)C[C@H]3C)c(-c3nc(C)no3)c(C)c2c1 [Compound 188],Selectivity (MOR/KOR),[1],+++ (between 100- to 1000-fold selective)
same,IC50,[1],10 to 100 nM
same,IC50,[2],> 1000 nM
CCc1cc(F)c2nc(N3CCN(C(=O)[C@H](C)N4CC[C@@H](O)C4)C[C@H]3C)c(-c3nc(C)no3)c(C)c2c1 [Compound 150],Selectivity (MOR/KOR),[1],+++ (between 100- to 1000-fold selective)
same,IC50,[1],≥ 100 nM
same,IC50,[2],> 1000 nM
"CCc1cc(-c2cc[nH]n2)c2nc(N3CCNC[C@H]3C)c(-c3ccn(C)n3)c(C)c2c1 [Compound 12, (R)-6-ethyl-4-methyl-3-(1-methyl-1H-pyrazol-3-yl)-2-(2-methylpiperazin-1-yl)-8-(1H-pyrazol-3-yl)quinoline]",Selectivity (MOR/KOR),[1],+ (less than 10-fold selectivity)
same,IC50,[1],≥ 100 nM
same,IC50,[2],> 1000 nM
CCc1cc(F)c2nc(N3CCN(/C(=N/C#N)NC4CC(F)(F)C4)C[C@H]3C)c(-c3nc(C)no3)c(C)c2c1 [Compound 54],Selectivity (MOR/KOR),[1],+++ (between 100- to 1000-fold selective)
same,IC50,[1],< 1 nM
same,IC50,[2],10 to 100 nM
"CCc1cc(-c2ccnn2C)c2nc(N3CCNC4CC43)c(-c3ccn(C)n3)c(C)c2c1 (stereo not shown) [Compound 24, 2-(2,5-diazabicyclo[4.1.0]heptan-2-yl)-6-ethyl-4-methyl-3-(1-methyl-1H-pyrazol-3-yl)-8-(1-methyl-1H-pyrazol-5-yl)quinoline]",Selectivity (MOR/KOR),[1],+ (less than 10-fold selectivity)
same,IC50,[1],≥ 100 nM
same,IC50,[2],> 1000 nM
CCc1cc(-c2ccnn2C)c2nc(N3CCC(NCC4(F)CCC4)CC3)c(-c3ccn(C)n3)c(C)c2c1 [Compound 90],Selectivity (MOR/KOR),[1],+++ (between 100- to 1000-fold selective)
same,IC50,[1],< 1 nM
same,IC50,[2],10 to 100 nM
CCc1cc(F)c2nc(N3CCN(C(=O)[C@@H](C)N4CC[C@@H](F)C4)C[C@H]3C)c(-c3nc(C)no3)c(C)c2c1 [Compound 147],Selectivity (MOR/KOR),[1],+++ (between 100- to 1000-fold selective)
same,IC50,[1],1 to 10 nM
same,IC50,[2],100 to 1000 nM
CCc1cc(F)c2nc(N3CCN([C@H]4CCOC4)C[C@H]3C)c(-c3nc(C)no3)c(C)c2c1 [Compound 33],Selectivity (MOR/KOR),[1],+++ (between 100- to 1000-fold selective)
same,IC50,[1],1 to 10 nM
same,IC50,[2],> 1000 nM
CCc1cc(F)c2nc(N3CCN(C[C@@H]4CCOC4)C[C@H]3C)c(-c3ccn(C)n3)c(C)c2c1 [Compound 57],Selectivity (MOR/KOR),[1],++ (between 10- and 100-fold selectivity)
same,IC50,[1],≥ 100 nM
same,IC50,[2],> 1000 nM
CCc1cc(-c2ccnn2C)c2nc(N3CCC(N4CCOC[C@H]4C)CC3)c(-c3ccn(C)n3)c(C)c2c1 [Compound 93],IC50,[1],> 1000 nM
same,IC50,[2],> 1000 nM
CCc1cc(-c2ccn(C)n2)c2nc(N3CCN(C(=O)C4CCOCC4)C[C@H]3C)c(-c3ccn(C)n3)c(C)c2c1 [Compound 101],IC50,[1],> 1000 nM
same,IC50,[2],> 1000 nM
CCc1cc(-c2ccnn2C)c2nc(N3CCC(N[C@H]4CCOC4)CC3)c(-c3ccn(C)n3)c(C)c2c1 [Compound 86],Selectivity (MOR/KOR),[1],+++ (between 100- to 1000-fold selective)
same,IC50,[1],< 1 nM
same,IC50,[2],> 1000 nM
